Data taken from patent US20230192772A1, “ANTIMICROBIAL PEPTIDES AND USES THEREOF” (SORBONNE UNIVERSITE, priority 2016, published 2023).
Ends that are not written are not given here.

Experiments:
Assay type in all cases: cell-based
[1] = Cytotoxic effects on immune cells obtained from mouse bone marrow; conditions: mouse immune cells originating from bone marrow, read-out: LC50
Experimental: The mouse immune cells are obtained from C57BL/6 or Balb/c mouse bone marrow. The peptides are incubated at 37° C., 5% CO2 in the presence of 500,000 immune cells in RPMI medium at varied concentrations for 2 hours. Peptide-free cells are used as the negative control and cells in the presence of DMSO (30%) are used as the positive control. After incubation, the cells are washed then labelled with Trypan blue so as to measure the cell viability by microscope counting. The LC50 is then calculated as being the concentration of DA2N, K12A and DANa peptides inducing the death of 50% of the immune cells.

[2] = LC50 on red blood cells; conditions: Human red blood cells
Experimental: The human red blood cells were purified from the whole blood of healthy donors (blood bank, IMSS, Cuernavaca, Mexico).
(§1) The peptides are incubated at 37° C., 5% CO2 in the presence of 500,000 red blood cells in RPMI medium at varied concentrations and at varied times. Peptide-free cells are used as the negative control and cells incubated for 5 min at 50° C. or in the presence of DMSO (30%) are used as the positive control. The LC50 is then calculated as being the concentration of DA2N and DA2NEQ peptides inducing the death of 50% of the red blood cells.

[3] = tested on: Klebsiella pneumoniae CIP 5211; test: MIC/MBC, growth inhibition in liquid medium (Example 2); conditions: Table 2
Text: (§2) Escherichia coli (ATCC 8739, ATCC ML35p and P7 BLSE), Pseudomonas aeruginosa (ATCC 9027 and ATCC 27853), Klebsiella oxytoca (CIP 7932), Klebsiella pneumoniae (CIP 52.211), Salmonella enterica (CIP 8297), Yersinia ruckeri (ATCC 29473), Vibrio parahemolyticus (IFREMER 01 01/252), Staphylococcus aureus (ATCC 6538, ST 1065 and MRSA), Staphylococcus epidermidis (BM 3302), Listeria monocytogenes (SOR 100), Enterococcus faecalis (CIP A186, CIP 103015)), Kocuria rhizophila (ATCC 9341), Lactococcus garviae (ATCC 43921), Bacillus subtilis (CIP 52.65).
(§3) For each strain, a 5 ml pre-culture in LB medium is prepared by inoculating a colony of the bacterial strain of interest. The pre-culture is incubated at 37° C. under stirring overnight. The culture is subcultured (30 µL) in 5 mL. The culture concentration is evaluated by measuring the optical density at 620 nm. The concentration is adjusted by dilution so as to obtain a suspension with an OD of 0.05 at 620 nm.
(§4) The MIC is determined using a growth inhibition test in liquid medium. The MIC is defined as being the lowest peptide concentration capable of inhibiting the bacterial strain tested, after incubation for 18 h at 37° C. The test was carried out in a sterile microtitration plate containing 96 wells. A series of increasing concentrations of each peptide (0.2 to 100 µM) was prepared beforehand in sterile MilliQ water. In each well, 10 µL of peptide was incubated with 90 µL of bacterial suspension (10^7 cfu/mL) in yeast extract-free LB medium. The microplate was incubated at 37° C. for 18 h. The bacterial growth was evaluated by measuring the OD at 620 nm using a plate reader.
(§5) The negative growth inhibition control was obtained by replacing the solution containing the peptide by sterile MilliQ water. The positive control suitable for completely inhibiting the growth of the bacterial strains was obtained by replacing the solution containing the peptide by 10 µL of formaldehyde.
(§6) The results are interpreted by calculating the percentage of bacterial growth in each well according to the formula:
(§7) %Growth = (OD well - OD of T0)/(OD of T100-OD of T0)*100 where
(§8) • OD of T100 = OD of growth control (bacterial suspension free from sample under test, 100% growth), • OD of T0 = OD of sterility control (culture medium + bacterium + 10 µL formaldehyde, 0% growth) and • OD well = OD of well for which it is sought to calculate the growth percentage (bacterial suspension + peptide under test).
(§9) The MBC is defined as being the minimum peptide concentration leaving no surviving bacteria of the inoculum after incubation at 37° C. for 24 hours. This test consists of smearing the contents of the well wherein the peptide has inhibited bacterial growth on a Petri dish (LB agar), followed by incubation for 24 h at 37° C.

[4] = tested on: Staphylococcus epidermidis BM 3302; test: as above; conditions: Table 2
Text: as §2, §3, §4, §5, §6, §7, §8, §9

[5] = tested on: Pseudomonas aeruginosa ATCC 9027; test: as above; conditions: Table 2
Text: as §2, §3, §4, §5, §6, §7, §8, §9

[6] = tested on: Klebsiella oxytoca CIP 7932; test: as above; conditions: Table 2
Text: as §2, §3, §4, §5, §6, §7, §8, §9

[7] = tested on: Escherichia coli ML35p; test: as above; conditions: Table 2
Text: as §2, §3, §4, §5, §6, §7, §8, §9

[8] = tested on: non-immune cells (epithelial cells); test: Survival of non-immune cells; conditions: doses of the micromolar order; mouse and human epithelial cells
Experimental: The following non-immune cells were extracted after sacrificing C57BL6 mice or in a surgical context: epithelial cells, adipocytes, hepatocytes.
The peptides are incubated at 37° C., 5% CO2 in the presence of 500,000 immune and non-immune cells in RPMI medium at varied concentrations and at varied times. Peptide-free cells are used as the negative control and cells incubated for 5 min at 50° C. or in the presence of DMSO (30%) are used as the positive control. After incubation, the cells are washed then labelled with propidium iodide so as to measure the cell viability. The cell viability is analysed by counting or with flow cytometry in the presence of antibodies coupled with fluorochromes corresponding to characteristic markers of each cell population. The LC50 is then calculated as being the concentration of DA2N and DA2NEQ peptides inducing the death of 50% of each one of the immune cell populations.
Cytometry data processing is carried out with FlowJo software.

[9] = LC50 on red blood cells; conditions: C57BL6; Mouse red blood cells
Experimental: The mouse red blood cells are obtained from C57BL6 mouse bone marrow.
as §1

| Substance | CC50 at 2 hours [1] [µM] | CC50 [2] [µM] | MIC [3] [µM] | MBC [4] [µM] | MIC [4] [µM] | MBC [5] [µM] | MIC [5] [µM] | MBC [6] [µM] | MIC [6] [µM] | MBC [7] [µM] | MIC [7] [µM] | death of non-immune cells [8] | CC50 [9] [µM] |
| --- | --- | --- | --- | --- | --- | --- | --- | --- | --- | --- | --- | --- | --- |
| ALWKTLLKKVGKVAGKAVLNAVTNMANQN-OH [DA2N] | 5 | 750 | 3.12 | 12.5 | 1 | 12.5 | 12.5 | 6.25 | 3.12 | 6.25 | 3.12 | induce the death of immune cells but not of non-immune cells | 750 |
| ALWKTLLKKVGKVAGKAVLNAVTNMANQNEQ [DA2NEQ, ALWKTLLKKVGKVAGKAVLNAVTNMANQNEQOH] | – | 750 | 3.12 | >100 | >100 | 25 | 12.5 | >100 | 12.5 | 6.25 | 6.25 | induce the death of immune cells but not of non-immune cells | 750 |
